Results as given in PubChem BioAssay (NCI).
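Values below derive from 48-hour exposures of cells grown in 96-well plates, with endpoints linearly interpolated between the two concentrations bracketing the appropriate inhibition level. Here, GI50 denotes the concentration required for 50% inhibition of growth. The concentration for full growth arrest is given as TGI.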

What was measured:
Test in all cases: NCI anticancer screen, dose series, 48 h
[1] = tested on: EKVX NSCLC
[2] = tested on: NCI-H226 lung
[3] = tested on: A498 renal
[4] = tested on: PC-3 prostate
[5] = tested on: LOX IMVI melanoma
[6] = tested on: SR leukemia
[7] = tested on: MALME-3M melanoma
[8] = tested on: ACHN renal
[9] = tested on: HS 578T breast
[10] = tested on: MDA-MB-435
[11] = tested on: SK-MEL-5 melanoma
[12] = tested on: SW-620 colon
[13] = tested on: SF-539 CNS
[14] = tested on: KM12 colon
[15] = tested on: M14 melanoma
[16] = tested on: CAKI-1 renal
[17] = tested on: MOLT-4 leukemia
[18] = tested on: BT-549 breast
[19] = tested on: HCC-2998 colon
[20] = tested on: SNB-19 CNS
[21] = tested on: SK-MEL-2 melanoma
[22] = tested on: A549 NSCLC
[23] = tested on: SNB-75 CNS
[24] = tested on: U251 CNS
[25] = tested on: COLO 205 colon
[26] = tested on: SK-OV-3 ovarian
[27] = tested on: K-562 leukemia
[28] = tested on: NCI-H522 lung
[29] = tested on: OVCAR-8 ovarian
[30] = tested on: UACC-257 melanoma
[31] = tested on: SF-268 CNS
[32] = tested on: HCT-15 colon
[33] = tested on: MDA-MB-231 breast
[34] = tested on: HOP-62 NSCLC
[35] = tested on: SF-295 CNS
[36] = tested on: HCT-116 colon
[37] = tested on: IGROV1 ovarian
[38] = tested on: HT29 colon
[39] = tested on: HL-60(TB) leukemia
[40] = tested on: NCI/ADR-RES ovarian
[41] = tested on: UACC-62 melanoma
[42] = tested on: RPMI-8226 leukemia
[43] = tested on: DU-145 prostate
[44] = tested on: HOP-92 NSCLC
[45] = tested on: TK-10 renal
[46] = tested on: OVCAR-4 ovarian
[47] = tested on: SK-MEL-28 melanoma
[48] = tested on: UO-31 renal
[49] = tested on: SN12C renal
[50] = tested on: NCI-H460 lung
[51] = tested on: OVCAR-5 ovarian
[52] = tested on: RXF 393 renal
[53] = tested on: NCI-H23 lung
[54] = tested on: 786-0 renal

For CCc1ccc(SC2c3ccc(N(CC)CC)cc3Oc3nc(N)c(C#N)c(N)c32)cc1 (stereo not drawn), the GI50 [1] was 0.71 µM, the TGI [1] was 2.07 µM and the GI50 [2] was 2.01 µM. It also gave a TGI [2] of 4.52 µM, a GI50 [3] of 1.63 µM and a TGI [3] of 3.01 µM. For the same compound, the GI50 [4] was 1.41 µM, the TGI [4] was 2.9 µM and the GI50 [5] was 0.671 µM. For the same compound, the TGI [5] was 1.97 µM, the GI50 [6] was 0.482 µM and the TGI [6] was > 100 µM. For the same compound, the GI50 [7] was 1.75 µM, the TGI [7] was 3.16 µM and the GI50 [8] was 1.67 µM. The TGI [8] was 3.04 µM, the GI50 [9] was 1.76 µM and the TGI [9] was 4.85 µM. It also gave a GI50 [10] of 1.68 µM, a TGI [10] of 3.1 µM and a GI50 [11] of 1.77 µM. The TGI [11] was 3.17 µM, the GI50 [12] was 1.88 µM and the TGI [12] was 3.51 µM. The GI50 [13] was 1.66 µM, the TGI [13] was 3.05 µM and the GI50 [14] was 1.58 µM. The TGI [14] was 3.03 µM, the GI50 [15] was 1.45 µM and the TGI [15] was 2.83 µM. It also gave a GI50 [16] of 1.63 µM, a TGI [16] of 3 µM and a GI50 [17] of 2.19 µM. For the same compound, the TGI [17] was > 100 µM, the GI50 [18] was 1.3 µM and the TGI [18] was 2.59 µM. For the same compound, the GI50 [19] was 1.86 µM, the TGI [19] was 3.39 µM and the GI50 [20] was 1.69 µM. For the same compound, the TGI [20] was 3.08 µM, the GI50 [21] was 1.74 µM and the TGI [21] was 3.17 µM. It also gave a GI50 [22] of 1.81 µM, a TGI [22] of 3.32 µM and a GI50 [23] of 1.5 µM. It also gave a TGI [23] of 2.83 µM, a GI50 [24] of 1.44 µM and a TGI [24] of 2.82 µM. It also gave a GI50 [25] of 1.92 µM, a TGI [25] of 3.51 µM and a GI50 [26] of 1.89 µM. The TGI [26] was 3.34 µM, the GI50 [27] was 3.12 µM and the TGI [27] was > 100 µM. It also gave a GI50 [28] of 1.78 µM, a TGI [28] of 3.28 µM and a GI50 [29] of 1.71 µM. The TGI [29] was 3.13 µM, the GI50 [30] was 1.84 µM and the TGI [30] was 3.28 µM. For the same compound, the GI50 [31] was 1.76 µM, the TGI [31] was 3.27 µM and the GI50 [32] was 1.62 µM. It also gave a TGI [32] of 3.34 µM, a GI50 [33] of 1.63 µM and a TGI [33] of 3.04 µM. For the same compound, the GI50 [34] was 1.83 µM, the TGI [34] was 3.33 µM and the GI50 [35] was 1.76 µM. For the same compound, the TGI [35] was 3.2 µM, the GI50 [36] was 1.13 µM and the TGI [36] was 2.49 µM. For the same compound, the GI50 [37] was 1.44 µM, the TGI [37] was 2.89 µM and the GI50 [38] was 2.03 µM. The TGI [38] was 3.76 µM, the GI50 [39] was 2.59 µM and the TGI [39] was 8.34 µM. The GI50 [40] was 2.09 µM, the TGI [40] was 4.96 µM and the GI50 [41] was 1.7 µM. It also gave a TGI [41] of 3.13 µM, a GI50 [42] of 2.18 µM and a TGI [42] of 6.08 µM. The GI50 [43] was 1.86 µM, the TGI [43] was 3.26 µM and the GI50 [44] was 1.48 µM. For the same compound, the TGI [44] was 2.84 µM, the GI50 [45] was 2.75 µM and the TGI [45] was 4.26 µM. For the same compound, the GI50 [46] was 1.7 µM, the TGI [46] was 3.09 µM and the GI50 [47] was 1.89 µM. The TGI [47] was 3.31 µM, the GI50 [48] was 1.45 µM and the TGI [48] was 2.76 µM. For the same compound, the GI50 [49] was 1.68 µM, the TGI [49] was 3.13 µM and the GI50 [50] was 1.84 µM. For the same compound, the TGI [50] was 3.55 µM, the GI50 [51] was 1.8 µM and the TGI [51] was 3.24 µM. For the same compound, the GI50 [52] was 1.58 µM, the TGI [52] was 2.96 µM and the GI50 [53] was 1.53 µM. The TGI [53] was 3.03 µM, the GI50 [54] was 1.74 µM and the TGI [54] was 3.17 µM.
